Test results from patent publication US20050249665A1, “Urea-, glycerate- and, hydroxyamide-headed hydrocarbon chain lyotropic phases forming surfactants” (DBL Australia Pty Ltd., priority 2002, published 2005).
Values joined by “and” are separate entries in the source; they are usually repeats but may differ in a detail not shown here. Identical values can stand only once. “Also recorded” adds a separate entry of the source. Like-named read-outs stand apart in the source and are kept apart here.

What was measured:
Format in all cases: physicochemical
[1] = Flooding experiment: lyotropic phase formed in excess water at 40° C.; note: key: Hll denotes reverse hexagonal phase; conditions: sample maintained at 40° C., crossed polarised light, 200x
Description: (§1) Preliminary assessment of the phase behaviour of a selected compound was conducted using the ‘flooding’ technique. The flooding technique involves placing the compound between a coverslip and microscope slide and introducing water to the sample to establish a water concentration gradient through the sample. […] If the experiment is conducted on a hot stage, the temperature range over which the particular lyotropic phases exist can also be determined. The phase behaviour can be observed under normal or cross-polarised light using an optical microscope. […] For the purpose of the present invention it was especially useful for identifying which phase was present at the boundary with excess water.
For the surfactant to be useful it preferably forms a viscous lyotropic phase in the presence of excess water. The lyotropic phase formed by the surfactant in excess water was determined by flooding experiments, in which a small amount of lipid (typically 5 mg) is placed between a glass microscope slide and coverslip and water introduced to the sample by capillary action, with the sample maintained at 40° C. by means of a hot stage. Observation under crossed polarised light at 200× magnification allows identification of the phase formed by the visible birefringent texture, or lack thereof.

[2] = Water content of saturated lyotropic phase by Karl Fisher titration; conditions: 300 mg surfactant in excess water, equilibrated at 40° C.; mean of three samples ± SD
Description: The mass of water incorporated in the lyotropic phase was determined by preparing a 300 mg sample of surfactant in excess water, equilibrating at 40° C., and testing the water content of the lyotropic phase by Karl Fisher titration. Values reported are the mean of three separate samples i standard deviation, unless otherwise indicated.

[3] = Lyotropic behaviour: flooding technique on hot stage, optical microscopy under crossed polarised light
Description: as §1

[4] = flooding with water, temperature as stated per example

| SMILES | Phase formed in excess water [1] | % water (w/w) in saturated lyotropic phase [2] | Temperature at which the hexagonal phase is completely melted / sample completely isotropic ([3]; flooding, heating) | Lyotropic phase formed at the interface with water [3, 4] | Temperature at which the hexagonal phase reappears on cooling ([3]; flooding, cooling) [°C] | Temperature at which the hexagonal phase begins to melt ([3]; flooding, heating) [°C] | Temperature at which the lyotropic phase forms / begins to form on contact with water ([3]; flooding, heating) | Temperature at which the isotropic cubic phase reforms on cooling ([3]; flooding, cooling) [°C] | Temperature at which the isotropic cubic phase has disappeared ([3]; flooding, heating) [°C] | Lyotropic phase formed at the interface with water [3] | Temperature at which the lyotropic phase forms / begins to form on contact with water [3] [°C] |
| --- | --- | --- | --- | --- | --- | --- | --- | --- | --- | --- | --- |
| CC(C)CCCC(C)CCCC(C)CCCC(C)CC(=O)OCC(O)CO (centres unmarked) [3,7,11,15-tetramethyl-hexadecanoic acid 1-glycerol ester] | Hll | 23.1 ± 3.2 % (w/w) |  |  |  |  |  |  |  |  |  |
| CCCCCCCC/C=C\CCCCCCCCNC(=O)NCCO [Example 8, 1-(2-Hydroxyethyl)-3-(cis-octadec-9-enyl) urea] |  |  | ~67 °C |  |  |  |  |  |  | isotropic phase | 59.5 |
| CC(C)CCCC(C)CCCC(C)CCCC(C)CCN(CCO)C(N)=O (centres unmarked) [Example 1, 1-(3,7,11,15tetramethyl-hexadecyl)-1-(2-hydroxyethyl) urea] | Hll |  | 58.1 °C | reverse hexagonal phase | 51.1 | 50.9 | 20 °C |  |  |  |  |
| CC(C)CCCC(C)CCCC(C)CCCC(C)CCNC(N)=O (centres unmarked) [Example 3, 3,7,11,15Tetramethyl-hexadecyl urea] | Hll | 28.4 ± 2.3 % (w/w) | 82.1 °C | reverse hexagonal phase |  | 72.6 | 25 °C |  |  |  |  |
| CC(C)CCCC(C)CCCC(C)CCOC(=O)C(O)CO (centres unmarked) [2,3-Dihydroxypropionic acid 3,7,11-trimethyl-dodecyl ester] | Hll | 24.7 ± 0.7 % (w/w) |  |  |  |  |  |  |  |  |  |
| CC(C)CCCC(C)CCCC(C)CCCC(C)CCNC(=O)NCCO (centres unmarked) [Example 2, 1-(3,7,11,15-tetramethyl-hexadecyl)-3-(2-hydroxyethyl) urea] | Hll | 14.3 ± 4.6 % (w/w) | 58 °C and 57.3 °C | reverse hexagonal phase | 44.1 | 40.4 | below 8 °C |  |  |  |  |
| CC(C)CCCC(C)CCCC(C)CCCC(C)CC(=O)NC(C)(CO)CO (centres unmarked) [Example 7, 3,7,11,15-tetramethyl-hexadecanoic acid (1,1-bis-hydroxymethyl-ethyl)-amide] |  |  | 26.7 °C | isotropic phase; also recorded: hexagonal phase |  | 25.5 | 10-15 °C |  |  |  |  |

Second part, led by results:

| Phase formed in excess water [1] | % water (w/w) in saturated lyotropic phase [2] | Temperature at which the hexagonal phase is completely melted / sample completely isotropic ([3]; flooding, heating) | Lyotropic phase formed at the interface with water [3, 4] | Temperature at which the hexagonal phase reappears on cooling ([3]; flooding, cooling) [°C] | Temperature at which the hexagonal phase begins to melt ([3]; flooding, heating) [°C] | Temperature at which the lyotropic phase forms / begins to form on contact with water ([3]; flooding, heating) | Temperature at which the isotropic cubic phase reforms on cooling ([3]; flooding, cooling) [°C] | Temperature at which the isotropic cubic phase has disappeared ([3]; flooding, heating) [°C] | SMILES | Lyotropic phase formed at the interface with water [3] | Temperature at which the lyotropic phase forms / begins to form on contact with water [3] [°C] |
| --- | --- | --- | --- | --- | --- | --- | --- | --- | --- | --- | --- |
| Hll | 16.8 ± 3.9 % (w/w) | 80 °C |  | 77 | 65 | 30 °C | 40 | 70 | CCCCCCCC/C=C\CCCCCCCCOC(=O)C(O)CO (centres unmarked) [Example 5, 2,3-Dihydroxypropionic acid octadec-9-enyl ester] |  |  |
| Hll | 8.1 ± 2.5 % (w/w) | > 70 °C | reverse hexagonal phase |  | 55 | 30 °C |  |  | CC(C)CCCC(C)CCCC(C)CCNC(N)=O (centres unmarked) [Example 4, 3,7,11-Trimethyl-dodecyl urea] |  |  |
|  |  | 92-93 °C | reverse hexagonal phase |  |  | 53 °C |  |  | CCCCC/C=C\C/C=C\CCCCCCCCNC(N)=O [Example 11, cis, cis-octadec-9,12-dienyl urea] |  |  |
|  |  | 107 °C | hexagonal phase |  |  | 85 °C |  |  | CCCCCCCC/C=C\CCCCCCCCNC(=O)NC(N)=O [Example 9, cis-octadec-9-enyl biuret] |  |  |
|  |  | 110 °C | reverse hexagonal phase |  |  | 61 °C |  |  | CCCCCCCC/C=C\CCCCCCCCNC(N)=O [Example 10, cis-octadec-9enyl urea] |  |  |
| Hll | 28.7 ± 2.5 % (w/w) | 48 °C | reverse hexagonal phase |  | ~40 | room temperature |  |  | CC(C)CCCC(C)CCCC(C)CCCC(C)CCOC(=O)C(O)CO (centres unmarked) [Example 6, 2,3-Dihydroxypropionic acid 3,7,11,15-tetramethyl-hexadecyl ester] |  |  |
